± gives the expanded uncertainty stated by the source.
Test: xn = mol fraction of the nth substance listed
Conditions: 100 kPa, Liquid; for speed of sound: Frequency=3 MHz, Linear variable-path acoustic interferometer; for mass density: Pycnometric method

C=C(C)C(=O)OCCCC [butyl 2-methyl-2-propenoate] + CC#N
Conditions | mass density [kg/m3] | speed of sound [m/s]
293.15 K, x2 = 0 | 895.19 ± 1 | 1241.7 ± 1.7
293.15 K, x2 = 0.0681 | 892.7 ± 1 | 1244.4 ± 1.7
293.15 K, x2 = 0.1359 | 889.93 ± 1 | 1247.2 ± 1.7
293.15 K, x2 = 0.1976 | 887.12 ± 1 | 1249.7 ± 1.7
293.15 K, x2 = 0.2728 | 883.27 ± 1 | 1252.7 ± 1.7
293.15 K, x2 = 0.3442 | 879.11 ± 1 | 1255.5 ± 1.7
293.15 K, x2 = 0.4143 | 874.45 ± 1 | 1258.2 ± 1.7
293.15 K, x2 = 0.4658 | 870.61 ± 1 | 1260.3 ± 1.7
293.15 K, x2 = 0.5243 | 865.72 ± 1 | 1262.7 ± 1.7
293.15 K, x2 = 0.5649 | 861.96 ± 1 | 1264.5 ± 1.7
293.15 K, x2 = 0.639 | 854.15 ± 1 | 1268.1 ± 1.7
293.15 K, x2 = 0.7112 | 845.09 ± 1 | 1272.2 ± 1.7
293.15 K, x2 = 0.7836 | 834.14 ± 1 | 1277.3 ± 1.7
293.15 K, x2 = 0.8558 | 820.72 ± 1 | 1283.7 ± 1.6
293.15 K, x2 = 0.928 | 803.86 ± 1 | 1292.4 ± 1.6
298.15 K, x2 = 0 | 890.48 ± 1 | 1222.1 ± 1.7
298.15 K, x2 = 0.0681 | 887.98 ± 1 | 1224.8 ± 1.7
298.15 K, x2 = 0.1359 | 885.2 ± 1 | 1227.6 ± 1.7
298.15 K, x2 = 0.1976 | 882.38 ± 1 | 1230 ± 1.7
298.15 K, x2 = 0.2728 | 878.51 ± 1 | 1232.9 ± 1.7
298.15 K, x2 = 0.3442 | 874.33 ± 1 | 1235.5 ± 1.7
298.15 K, x2 = 0.4143 | 869.65 ± 1 | 1238.2 ± 1.7
298.15 K, x2 = 0.4658 | 865.78 ± 1 | 1240.2 ± 1.7
298.15 K, x2 = 0.5243 | 860.86 ± 1 | 1242.5 ± 1.7
298.15 K, x2 = 0.5649 | 857.08 ± 1 | 1244.2 ± 1.6
298.15 K, x2 = 0.639 | 849.22 ± 1 | 1247.7 ± 1.6
298.15 K, x2 = 0.7112 | 840.11 ± 1 | 1251.6 ± 1.6
298.15 K, x2 = 0.7836 | 829.09 ± 1 | 1256.4 ± 1.6
298.15 K, x2 = 0.8558 | 815.6 ± 1 | 1262.6 ± 1.6
298.15 K, x2 = 0.928 | 798.66 ± 1 | 1271 ± 1.6
303.15 K, x2 = 0 | 885.78 ± 1 | 1202.4 ± 1.7
303.15 K, x2 = 0.0681 | 883.27 ± 1 | 1205.3 ± 1.7
303.15 K, x2 = 0.1359 | 880.47 ± 1 | 1208.1 ± 1.7
303.15 K, x2 = 0.1976 | 877.64 ± 1 | 1210.5 ± 1.7
303.15 K, x2 = 0.2728 | 873.75 ± 1 | 1213.3 ± 1.7
303.15 K, x2 = 0.3442 | 869.55 ± 1 | 1216 ± 1.7
303.15 K, x2 = 0.4143 | 864.84 ± 1 | 1218.7 ± 1.6
303.15 K, x2 = 0.4658 | 860.95 ± 1 | 1220.7 ± 1.6
303.15 K, x2 = 0.5243 | 856.01 ± 1 | 1223.1 ± 1.6
303.15 K, x2 = 0.5649 | 852.2 ± 1 | 1224.8 ± 1.6
303.15 K, x2 = 0.639 | 844.3 ± 1 | 1228.3 ± 1.6
303.15 K, x2 = 0.7112 | 835.14 ± 1 | 1232.3 ± 1.6
303.15 K, x2 = 0.7836 | 824.06 ± 1 | 1237.2 ± 1.6
303.15 K, x2 = 0.8558 | 810.49 ± 1 | 1243.5 ± 1.6
303.15 K, x2 = 0.928 | 793.46 ± 1 | 1252 ± 1.6
308.15 K, x2 = 0 | 881.07 ± 1 | 1183 ± 1.7
308.15 K, x2 = 0.0681 | 878.55 ± 1 | 1185.9 ± 1.7
308.15 K, x2 = 0.1359 | 875.74 ± 1 | 1188.7 ± 1.7
308.15 K, x2 = 0.1976 | 872.89 ± 1 | 1191.2 ± 1.7
308.15 K, x2 = 0.2728 | 868.98 ± 1 | 1194.1 ± 1.6
308.15 K, x2 = 0.3442 | 864.75 ± 1 | 1196.8 ± 1.6
308.15 K, x2 = 0.4143 | 860.01 ± 1 | 1199.4 ± 1.6
308.15 K, x2 = 0.4658 | 856.1 ± 1 | 1201.4 ± 1.6
308.15 K, x2 = 0.5243 | 851.13 ± 1 | 1203.8 ± 1.6
308.15 K, x2 = 0.5649 | 847.3 ± 1 | 1205.6 ± 1.6
308.15 K, x2 = 0.639 | 839.36 ± 1 | 1209.1 ± 1.6
308.15 K, x2 = 0.7112 | 830.15 ± 1 | 1213.1 ± 1.6
308.15 K, x2 = 0.7836 | 819.01 ± 1 | 1218.1 ± 1.6
308.15 K, x2 = 0.8558 | 805.37 ± 1 | 1224.4 ± 1.6
308.15 K, x2 = 0.928 | 788.25 ± 1 | 1233 ± 1.6
313.15 K, x2 = 0 | 876.35 ± 1 | 1163.8 ± 1.7
313.15 K, x2 = 0.0681 | 873.82 ± 1 | 1166.7 ± 1.7
313.15 K, x2 = 0.1359 | 871 ± 1 | 1169.6 ± 1.6
313.15 K, x2 = 0.1976 | 868.13 ± 1 | 1172.1 ± 1.6
313.15 K, x2 = 0.2728 | 864.2 ± 1 | 1175 ± 1.6
313.15 K, x2 = 0.3442 | 859.95 ± 1 | 1177.7 ± 1.6
313.15 K, x2 = 0.4143 | 855.18 ± 1 | 1180.4 ± 1.6
313.15 K, x2 = 0.4658 | 851.24 ± 1 | 1182.4 ± 1.6
313.15 K, x2 = 0.5243 | 846.24 ± 1 | 1184.8 ± 1.6
313.15 K, x2 = 0.5649 | 842.39 ± 1 | 1186.6 ± 1.6
313.15 K, x2 = 0.639 | 834.41 ± 1 | 1190.2 ± 1.6
313.15 K, x2 = 0.7112 | 825.14 ± 1 | 1194.2 ± 1.6
313.15 K, x2 = 0.7836 | 813.95 ± 1 | 1199.3 ± 1.6
313.15 K, x2 = 0.8558 | 800.24 ± 1 | 1205.7 ± 1.6
313.15 K, x2 = 0.928 | 783.04 ± 1 | 1214.3 ± 1.6
318.15 K, x2 = 0 | 871.64 ± 1 | 1145.7 ± 1.7
318.15 K, x2 = 0.0681 | 869.11 ± 1 | 1148.6 ± 1.6
318.15 K, x2 = 0.1359 | 866.27 ± 1 | 1151.5 ± 1.6
318.15 K, x2 = 0.1976 | 863.39 ± 1 | 1154 ± 1.6
318.15 K, x2 = 0.2728 | 859.43 ± 1 | 1156.9 ± 1.6
318.15 K, x2 = 0.3442 | 855.15 ± 1 | 1159.6 ± 1.6
318.15 K, x2 = 0.4143 | 850.35 ± 1 | 1162.3 ± 1.6
318.15 K, x2 = 0.4658 | 846.39 ± 1 | 1164.3 ± 1.6
318.15 K, x2 = 0.5243 | 841.36 ± 1 | 1166.7 ± 1.6
318.15 K, x2 = 0.5649 | 837.49 ± 1 | 1168.4 ± 1.6
318.15 K, x2 = 0.639 | 829.46 ± 1 | 1171.9 ± 1.6
318.15 K, x2 = 0.7112 | 820.14 ± 1 | 1175.9 ± 1.6
318.15 K, x2 = 0.7836 | 808.89 ± 1 | 1180.9 ± 1.6
318.15 K, x2 = 0.8558 | 795.11 ± 1 | 1187.3 ± 1.6
318.15 K, x2 = 0.928 | 777.83 ± 1 | 1195.8 ± 1.6
